Experimental data as given in US20250255867A1 (Kadmon Corporation, LLC, priority 2022, published 2025).

Conditions: Cohort 3 400 mg QD

With CC(C)NC(=O)COc1cccc(-c2nc(Nc3ccc4[nH]ncc4c3)c3ccccc3n2)c1 [Belumosudil, 2-{3-[4-(1H-indazol-5-ylamino)-2-quinazolinyl]phenoxy}-N-(propan-2-yl) acetamide] the “Renal failure: Affected/At Risk” value was 0/21, the “Renal failure: Affected/At Risk (%)” value was “(0%)” and the “Respiratory syncytial virus infection: # Events” value was 3. For the same compound, the “Respiratory syncytial virus infection: Affected/At Risk” value was 2/21, the “Respiratory syncytial virus infection: Affected/At Risk (%)” value was “(9.52%)” and the “Respiratory tract infection fungal: # Events” value was 0. For the same compound, the “Respiratory tract infection fungal: Affected/At Risk” value was 0/21, the “Respiratory tract infection fungal: Affected/At Risk (%)” value was “(0%)” and the “Respiratory tract infection: # Events” value was 0. For the same compound, the “Respiratory tract infection: Affected/At Risk” value was 0/21, the “Respiratory tract infection: Affected/At Risk (%)” value was “(0%)” and the “Restless legs syndrome: # Events” value was 0. For the same compound, the “Restless legs syndrome: Affected/At Risk” value was 0/21, the “Restless legs syndrome: Affected/At Risk (%)” value was “(0%)” and the “Rosacea: # Events” value was 0. For the same compound, the “Rosacea: Affected/At Risk” value was 0/21, the “Rosacea: Affected/At Risk (%)” value was “(0%)” and the “SAE Abdominal wall haematoma, # events” value was 1. The “SAE Abdominal wall haematoma, affected/at risk” value was 1/21, the “SAE Acute kidney injury, # events” value was 0 and the “SAE Acute kidney injury, affected/at risk” value was 0/21. The “SAE Acute lymphocytic leukaemia recurrent, # events” value was 1, the “SAE Acute lymphocytic leukaemia recurrent, affected/at risk” value was 1/21 and the “SAE Acute respiratory failure, # events” value was 0. For the same compound, the “SAE Acute respiratory failure, affected/at risk” value was 0/21, the “SAE Anaphylactic reaction, # events” value was 0 and the “SAE Anaphylactic reaction, affected/at risk” value was 0/21. The “SAE Bacteraemia, # events” value was 0, the “SAE Bacteraemia, affected/at risk” value was 0/21 and the “SAE Cardiac arrest, # events” value was 1. The “SAE Cardiac arrest, affected/at risk” value was 1/21, the “SAE Cellulitis, # events” value was 0 and the “SAE Cellulitis, affected/at risk” value was 0/21. The “SAE Chronic graft versus host disease in skin, # events” value was 0, the “SAE Chronic graft versus host disease in skin, affected/at risk” value was 0/21 and the “SAE Citrobacter infection, # events” value was 0. For the same compound, the “SAE Citrobacter infection, affected/at risk” value was 0/21, the “SAE Dyspnoea, # events” value was 3 and the “SAE Dyspnoea, affected/at risk” value was 3/21. For the same compound, the “SAE Embolism, # events” value was 0, the “SAE Embolism, affected/at risk” value was 0/21 and the “SAE Febrile neutropenia, # events” value was 1. For the same compound, the “SAE Febrile neutropenia, affected/at risk” value was 1/21, the “SAE Graft versus host disease in lung, # events” value was 1 and the “SAE Graft versus host disease in lung, affected/at risk” value was 1/21. For the same compound, the “SAE Hypoxia, # events” value was 2, the “SAE Hypoxia, affected/at risk” value was 2/21 and the “SAE Influenza A virus test positive, # events” value was 0. The “SAE Influenza A virus test positive, affected/at risk” value was 0/21, the “SAE Influenza like illness, # events” value was 2 and the “SAE Influenza like illness, affected/at risk” value was 2/21. For the same compound, the “SAE Lacunar infarction, # events” value was 0, the “SAE Lacunar infarction, affected/at risk” value was 0/21 and the “SAE Leukaemia recurrent, # events” value was 1. The “SAE Leukaemia recurrent, affected/at risk” value was 1/21, the “SAE Lipomatosis, # events” value was 0 and the “SAE Lipomatosis, affected/at risk” value was 0/21. The “SAE Metastases to meninges, # events” value was 0, the “SAE Metastases to meninges, affected/at risk” value was 0/21 and the “SAE Muscular weakness, # events” value was 0. For the same compound, the “SAE Muscular weakness, affected/at risk” value was 0/21, the “SAE Myelodysplastic syndrome, # events” value was 1 and the “SAE Myelodysplastic syndrome, affected/at risk” value was 1/21. The “SAE Non-cardiac chest pain, # events” value was 0, the “SAE Non-cardiac chest pain, affected/at risk” value was 0/21 and the “SAE Obliterative bronchiolitis, # events” value was 0. For the same compound, the “SAE Obliterative bronchiolitis, affected/at risk” value was 0/21, the “SAE Pericardial effusion, # events” value was 1 and the “SAE Pericardial effusion, affected/at risk” value was 1/21. For the same compound, the “SAE Pleural effusion, # events” value was 1, the “SAE Pleural effusion, affected/at risk” value was 1/21 and the “SAE Pneumonia viral, # events” value was 1. The “SAE Pneumonia viral, affected/at risk” value was 1/21, the “SAE Pneumonia, # events” value was 3 and the “SAE Pneumonia, affected/at risk” value was 3/21. The “SAE Pregnancy of partner, # events” value was 1, the “SAE Pregnancy of partner, affected/at risk” value was 1/21 and the “SAE Proteinuria, # events” value was 0. For the same compound, the “SAE Proteinuria, affected/at risk” value was 0/21, the “SAE Respirovirus test positive, # events” value was 0 and the “SAE Respirovirus test positive, affected/at risk” value was 0/21. For the same compound, the “SAE Small intestinal obstruction, # events” value was 1, the “SAE Small intestinal obstruction, affected/at risk” value was 1/21 and the “SAE Stenotrophomonas infection, # events” value was 0. The “SAE Stenotrophomonas infection, affected/at risk” value was 0/21, the “SAE Urinary retention, # events” value was 1 and the “SAE Urinary retention, affected/at risk” value was 1/21. For the same compound, the “SAE Urinary tract infection, # events” value was 0, the “SAE Urinary tract infection, affected/at risk” value was 0/21 and the “SAE Varicella zoster virus infection, # events” value was 1. The “SAE Varicella zoster virus infection, affected/at risk” value was 1/21, the “SAE total, affected/at risk” value was 13/21 and the “Sinus pain: # Events” value was 0. For the same compound, the “Sinus pain: Affected/At Risk” value was 0/21, the “Sinus pain: Affected/At Risk (%)” value was “(0%)” and the “Sinusitis: # Events” value was 1. For the same compound, the “Sinusitis: Affected/At Risk” value was 1/21, the “Sinusitis: Affected/At Risk (%)” value was “(4.76%)” and the “Skin abrasion: # Events” value was 2. The “Skin abrasion: Affected/At Risk” value was 2/21, the “Skin abrasion: Affected/At Risk (%)” value was “(9.52%)” and the “Skin lesion: # Events” value was 0. The “Skin lesion: Affected/At Risk” value was 0/21, the “Skin lesion: Affected/At Risk (%)” value was “(0%)” and the “Skin papilloma: # Events” value was 0. For the same compound, the “Skin papilloma: Affected/At Risk” value was 0/21, the “Skin papilloma: Affected/At Risk (%)” value was “(0%)” and the “Spinal compression fracture: # Events” value was 0. For the same compound, the “Spinal compression fracture: Affected/At Risk” value was 0/21, the “Spinal compression fracture: Affected/At Risk (%)” value was “(0%)” and the “Squamous cell carcinoma of skin: # Events” value was 0. The “Squamous cell carcinoma of skin: Affected/At Risk” value was 0/21, the “Squamous cell carcinoma of skin: Affected/At Risk (%)” value was “(0%)” and the “Stomatitis: # Events” value was 1. For the same compound, the “Stomatitis: Affected/At Risk” value was 1/21, the “Stomatitis: Affected/At Risk (%)” value was “(4.76%)” and the “Superior vena cava syndrome: # Events” value was 0. The “Superior vena cava syndrome: Affected/At Risk” value was 0/21, the “Superior vena cava syndrome: Affected/At Risk (%)” value was “(0%)” and the “Tachycardia: # Events” value was 2. For the same compound, the “Tachycardia: Affected/At Risk” value was 2/21, the “Tachycardia: Affected/At Risk (%)” value was “(9.52%)” and the “Tendonitis: # Events” value was 0. The “Tendonitis: Affected/At Risk” value was 0/21, the “Tendonitis: Affected/At Risk (%)” value was “(0%)” and the “Testicular pain: # Events” value was 0. For the same compound, the “Testicular pain: Affected/At Risk” value was 0/21, the “Testicular pain: Affected/At Risk (%)” value was “(0%)” and the “Testicular swelling: # Events” value was 0. For the same compound, the “Testicular swelling: Affected/At Risk” value was 0/21, the “Testicular swelling: Affected/At Risk (%)” value was “(0%)” and the “Thoracic spinal stenosis: # Events” value was 0. For the same compound, the “Thoracic spinal stenosis: Affected/At Risk” value was 0/21, the “Thoracic spinal stenosis: Affected/At Risk (%)” value was “(0%)” and the “Thrombocytopenia: # Events” value was 1. For the same compound, the “Thrombocytopenia: Affected/At Risk” value was 1/21 and the “Thrombocytopenia: Affected/At Risk (%)” value was “(4.76%)”.
